# Assay results taken from EPA's ToxRefDB 2.
# Columns and labels:
# [1] = system: rat; conditions: Multigenerational reproductive toxicity study, sprague dawley, Oral, Feed, dose end: 2 generation
# [2] = system: rat; conditions: Multigenerational reproductive toxicity study, sprague dawley, Oral, Feed, dose end: 2 generation; remark: listed apart in the source
# [3] = system: rabbit; conditions: Prenatal developmental toxicity study, himalayan, Inhalation, Whole-Body, dose end: 29 GD
# [4] = system: rat; conditions: Prenatal developmental toxicity study, wistar, Inhalation, Whole-Body, dose end: 15 GD
# [5] = system: rat; conditions: Fertility (Segment I), Oral, Gavage/Intubation, dose end: 1 generation
# [6] = system: rat; conditions: Prenatal developmental toxicity study, Oral, Gavage/Intubation, dose end: 18 GD
# [7] = system: rat; conditions: Fertility (Segment I), Oral, Gavage/Intubation, dose end: 1 generation; remark: listed apart in the source
# [8] = system: rat; conditions: Prenatal developmental toxicity study, sprague dawley, Oral, Gavage/Intubation, dose end: 15 GD
# [9] = group: offspring, systemic / in life observation / body weight / offspring (pup) weight
# [10] = group: parental, systemic / in life observation / body weight / body weight + systemic / in life observation / body weight / body weight gain
# [11] = group: parental, systemic / pathology microscopic / stomach / proliferation
# [12] = group: developmental, developmental / developmental malformation / heart / [other] + developmental / developmental malformation / limb / [other]
# [13] = group: maternal, systemic / in life observation / mortality / mortality
# [14] = group: developmental, developmental / developmental malformation / bone / incomplete ossification + developmental / developmental malformation / bone / …
# [15] = group: developmental, developmental / developmental malformation / bone / malpositioned
# [16] = group: maternal, reproductive / reproductive performance / estrous cycle / abnormal + reproductive / reproductive performance / estrous cycle / corpora lutea…
# [17] = group: parental, systemic / in life observation / clinical signs / alopecia
# [18] = group: parental, systemic / in life observation / clinical signs / alopecia + systemic / in life observation / body weight / body weight + systemic / in life…
# [19] = group: developmental, developmental / developmental malformation / eye / microphthalmia + developmental / developmental malformation / general / situs inversus + …
# [20] = group: maternal, reproductive / reproductive performance / postimplantation loss / postimplantation loss + reproductive / reproductive performance / …
# [21] = group: maternal, reproductive / reproductive performance / fertility / fertility + reproductive / reproductive performance / pregnancy index / pregnancy …
# [22] = group: parental, systemic / in life observation / body weight / body weight + systemic / in life observation / clinical signs / body surface staining + …
# [23] = group: parental, systemic / in life observation / clinical signs / convulsions
# [24] = group: developmental, developmental / developmental malformation / bone / delayed ossification
# [25] = group: developmental, developmental / developmental malformation / bone / delayed ossification + developmental / developmental malformation / ureter / distended
# [26] = group: maternal, systemic / in life observation / body weight / body weight gain + systemic / in life observation / food consumption / food consumption
# [27] = group: maternal, systemic / in life observation / body weight / body weight gain + systemic / in life observation / food consumption / food consumption + …
compound,measurement,setting,value
CC1COc2ccccc2N1C(=O)C(Cl)Cl (stereo not drawn) [Benoxacor],LEL,[1]; [9],45.5 mg/kg/day
same,LOAEL,[1]; [9],45.5 mg/kg/day
same,NEL,[1]; [9],4.2 mg/kg/day
same,NOAEL,[1]; [9],4.2 mg/kg/day
same,LEL,[1]; [10],34.8 mg/kg/day
same,LOAEL,[1]; [10],34.8 mg/kg/day
same,NEL,[1]; [10],3.55 mg/kg/day
same,NOAEL,[1]; [10],3.55 mg/kg/day
O=C([O-])C1C2CCC(O2)C1C(=O)[O-].[Na+].[Na+] (stereo not drawn) [Disodium endothal],LEL,[2]; [9],10.9 mg/kg/day
same,LOAEL,[2]; [9],77.1 mg/kg/day
same,NEL,[2]; [9],2.1 mg/kg/day
same,NOAEL,[2]; [9],10.9 mg/kg/day
same,LEL,[2]; [11],2.1 mg/kg/day
same,LOAEL,[2]; [11],2.1 mg/kg/day
same,NEL,[2]; [11],< 2.1 mg/kg/day
same,NOAEL,[2]; [11],< 2.1 mg/kg/day
CC(C)CCO [Isopentyl alcohol],LEL,[3]; [12],0.5 ppm
same,LOAEL,[3]; [12],> 10 ppm
same,NEL,[3]; [12],< 0.5 ppm
same,NOAEL,[3]; [12],≥ 10 ppm
same,LEL,[3]; [13],2.5 ppm
same,LOAEL,[3]; [13],2.5 ppm
same,NEL,[3]; [13],0.5 ppm
same,NOAEL,[3]; [13],0.5 ppm
same,LOAEL,[4]; [14],> 10 ppm
same,NOAEL,[4]; [14],≥ 10 ppm
same,LEL,[4]; [15],0.5 ppm
same,NEL,[4]; [15],< 0.5 ppm
same,LEL,[4]; [13],0.5 ppm
same,LOAEL,[4]; [13],> 10 ppm
same,NEL,[4]; [13],< 0.5 ppm
same,NOAEL,[4]; [13],≥ 10 ppm
O=C(N[C@H]1CN2CCC1CC2)c1cc2ccoc2cn1,LEL,[5]; [16],150 mg/kg/day
same,LOAEL,[5]; [16],> 150 mg/kg/day
same,NEL,[5]; [16],50 mg/kg/day
same,NOAEL,[5]; [16],≥ 150 mg/kg/day
same,LEL,[5]; [17],5 mg/kg/day
same,NEL,[5]; [17],< 5 mg/kg/day
same,LOAEL,[5]; [18],> 150 mg/kg/day
same,NOAEL,[5]; [18],≥ 150 mg/kg/day
same,LOAEL,[6]; [19],> 150 mg/kg/day
same,NOAEL,[6]; [19],≥ 150 mg/kg/day
same,LEL,"[6]; group: developmental, developmental / developmental malformation / great vessels / [other]",20 mg/kg/day
same,LOAEL,[6]; [20],> 150 mg/kg/day
same,NEL,[6]; [20],5 mg/kg/day
same,NOAEL,[6]; [20],≥ 150 mg/kg/day
same,LEL,"[6]; group: maternal, systemic / in life observation / clinical signs / alopecia",20 mg/kg/day
same,LEL,[7]; [21],150 mg/kg/day
same,LOAEL,[7]; [21],> 175 mg/kg/day
same,NEL,[7]; [21],75 mg/kg/day
same,NOAEL,[7]; [21],≥ 175 mg/kg/day
same,LOAEL,[7]; [22],> 175 mg/kg/day
same,NOAEL,[7]; [22],≥ 175 mg/kg/day
same,LEL,[7]; [23],7 mg/kg/day
same,NEL,[7]; [23],< 7 mg/kg/day
COC[C@H](C)N(C(=O)CCl)c1c(C)csc1C [Dimethenamid-P],LEL,[8]; [24],150 mg/kg/day
same,LOAEL,[8]; [24],150 mg/kg/day
same,NEL,[8]; [25],25 mg/kg/day
same,NOAEL,[8]; [25],25 mg/kg/day
same,LOAEL,[8]; [26],25 mg/kg/day
same,NOAEL,[8]; [26],< 25 mg/kg/day
same,LEL,[8]; [27],25 mg/kg/day
same,NEL,[8]; [27],< 25 mg/kg/day
